Here are results for four molecules from ChEMBL document CHEMBL1250451, “Mechanistic insights into a Ca2+-dependent family of alpha-mannosidases in a human gut symbiont” (Nat Chem Biol, 2010).

Active and inactive are the calls of the source. No cut-off for these calls is given here.

Assay type in all cases: protein assay
In experiment [1] the target is T1, Alpha-1,2-mannosidase (BT_3784) (Bacteroides thetaiotaomicron) (UniProt Q8A182).
T1 sequence (whole entry): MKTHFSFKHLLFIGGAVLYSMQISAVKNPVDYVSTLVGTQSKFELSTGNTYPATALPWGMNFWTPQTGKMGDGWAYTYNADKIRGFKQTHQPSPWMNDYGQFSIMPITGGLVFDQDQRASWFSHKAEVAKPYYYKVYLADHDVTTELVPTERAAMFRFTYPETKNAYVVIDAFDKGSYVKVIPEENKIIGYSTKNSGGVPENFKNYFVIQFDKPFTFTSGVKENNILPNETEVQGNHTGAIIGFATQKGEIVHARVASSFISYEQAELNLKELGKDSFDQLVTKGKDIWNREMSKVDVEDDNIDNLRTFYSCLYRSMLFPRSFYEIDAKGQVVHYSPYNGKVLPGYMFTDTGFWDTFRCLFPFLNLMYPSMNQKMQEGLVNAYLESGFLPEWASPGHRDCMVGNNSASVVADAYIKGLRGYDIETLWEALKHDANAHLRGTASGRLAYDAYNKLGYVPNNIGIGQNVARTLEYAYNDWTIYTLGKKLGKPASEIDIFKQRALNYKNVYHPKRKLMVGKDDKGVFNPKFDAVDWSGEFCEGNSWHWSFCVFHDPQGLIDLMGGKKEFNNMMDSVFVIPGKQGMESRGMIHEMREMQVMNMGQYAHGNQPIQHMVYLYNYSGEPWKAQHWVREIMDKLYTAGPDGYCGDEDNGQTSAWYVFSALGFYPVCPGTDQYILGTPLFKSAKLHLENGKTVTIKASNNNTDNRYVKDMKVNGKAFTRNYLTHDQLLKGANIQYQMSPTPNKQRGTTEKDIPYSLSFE
As to the kind of experiment: Activity of Bacteroides thetaiotaomicron GH92 alpha-mannosidase GH92 alpha-mannosidase 3784 assessed as mannose release at 1 mM after 16 hrs by HPLC relative to untreated control after 16 hrs by HPLC.

Experiment [2] deals with T2, Alpha-1,2-mannosidase (BT_2629) (Bacteroides thetaiotaomicron) (UniProt Q8A4H0).
T2 sequence (whole entry): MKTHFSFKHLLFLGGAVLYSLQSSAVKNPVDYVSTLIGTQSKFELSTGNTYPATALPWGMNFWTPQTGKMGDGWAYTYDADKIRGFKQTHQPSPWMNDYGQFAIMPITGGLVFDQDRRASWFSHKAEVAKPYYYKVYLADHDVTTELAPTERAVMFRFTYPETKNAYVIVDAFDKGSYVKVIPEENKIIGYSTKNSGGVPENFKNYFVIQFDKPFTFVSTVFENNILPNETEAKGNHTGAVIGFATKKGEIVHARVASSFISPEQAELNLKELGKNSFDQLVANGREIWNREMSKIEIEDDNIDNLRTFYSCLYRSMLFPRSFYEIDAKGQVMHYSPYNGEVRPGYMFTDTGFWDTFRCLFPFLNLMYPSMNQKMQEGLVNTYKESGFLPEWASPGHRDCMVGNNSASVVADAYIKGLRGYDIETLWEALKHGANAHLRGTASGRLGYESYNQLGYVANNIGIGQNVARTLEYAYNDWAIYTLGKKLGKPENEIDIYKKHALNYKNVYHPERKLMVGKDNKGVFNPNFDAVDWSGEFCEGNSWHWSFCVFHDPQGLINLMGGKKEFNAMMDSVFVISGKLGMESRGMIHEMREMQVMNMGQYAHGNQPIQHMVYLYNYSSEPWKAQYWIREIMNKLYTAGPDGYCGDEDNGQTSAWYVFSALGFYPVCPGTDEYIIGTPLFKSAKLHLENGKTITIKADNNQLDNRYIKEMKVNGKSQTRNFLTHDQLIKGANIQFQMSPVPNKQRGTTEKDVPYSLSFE
As to the kind of experiment: Activity of Bacteroides thetaiotaomicron GH92 alpha-mannosidase GH92 alpha-mannosidase 2629 assessed as mannose release at 1 mM after 16 hrs by HPLC relative to untreated control after 16 hrs by HPLC.

Experiment [3] addresses T3, Alpha-1,2-mannosidase (BT_1878) (Bacteroides thetaiotaomicron) (UniProt Q8A6K3).
T3 sequence (whole entry): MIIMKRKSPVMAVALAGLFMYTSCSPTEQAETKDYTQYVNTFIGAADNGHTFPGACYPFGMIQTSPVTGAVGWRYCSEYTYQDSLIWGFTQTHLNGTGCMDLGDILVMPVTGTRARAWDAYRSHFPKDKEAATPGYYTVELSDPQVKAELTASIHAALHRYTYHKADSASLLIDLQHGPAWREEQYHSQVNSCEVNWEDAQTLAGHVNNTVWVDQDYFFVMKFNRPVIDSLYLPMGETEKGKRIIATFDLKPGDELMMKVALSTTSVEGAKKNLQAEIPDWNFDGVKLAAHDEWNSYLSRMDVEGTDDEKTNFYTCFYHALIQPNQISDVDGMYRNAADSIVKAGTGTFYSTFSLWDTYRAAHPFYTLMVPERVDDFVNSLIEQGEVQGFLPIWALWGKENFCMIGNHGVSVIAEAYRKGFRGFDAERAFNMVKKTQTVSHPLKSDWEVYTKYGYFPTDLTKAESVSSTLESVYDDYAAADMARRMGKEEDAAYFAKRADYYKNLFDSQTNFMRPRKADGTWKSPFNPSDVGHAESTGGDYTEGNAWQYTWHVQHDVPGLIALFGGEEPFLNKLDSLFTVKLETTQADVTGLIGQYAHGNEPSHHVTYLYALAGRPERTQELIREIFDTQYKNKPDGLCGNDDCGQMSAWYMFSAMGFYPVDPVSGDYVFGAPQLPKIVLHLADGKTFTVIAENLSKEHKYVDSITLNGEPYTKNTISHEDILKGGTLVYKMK
As to the kind of experiment: Activity of Bacteroides thetaiotaomicron GH92 alpha-mannosidase GH92 alpha-mannosidase 1878 assessed as mannose release at 1 mM after 16 hrs by HPLC relative to untreated control after 16 hrs by HPLC.

As to `OC[C@H]1O[C@H](O[C@H]2[C@H](O)[C@H](O)[C@@H](O)O[C@@H]2CO)[C@@H](O)[C@@H](O)[C@@H]1O`, the results for the Activity in experiment [1] and in experiment [3] were 7.8% and 3.6%, respectively. Besides, in experiment [2], the outcome was inactive.

On to `OC[C@H]1O[C@H](O[C@H]2[C@@H](O)[C@H](O)[C@@H](CO)O[C@@H]2O)[C@@H](O)[C@@H](O)[C@@H]1O`, for which the Activity in experiment [1] was determined as 100%; in experiment [3] it was 4.5%. For the same molecule, the result in experiment [2] was inactive.

For the molecule `OC[C@H]1O[C@H](OC[C@H]2O[C@H](O)[C@@H](O)[C@@H](O)[C@@H]2O)[C@@H](O)[C@@H](O)[C@@H]1O`, the outcome in experiment [1] and in experiment [2] was inactive. The Activity in experiment [3] was 1.1%.

Turning to `OC[C@H]1O[C@H](O[C@@H]2[C@H](O)[C@@H](O)O[C@H](CO)[C@H]2O)[C@@H](O)[C@@H](O)[C@@H]1O`, the Activity in experiment [1] came out at 5.6%. For the same molecule, the outcome in experiment [2] was inactive.
